One compound from US11629160B2, “Corrole-based frameworks and methods of use thereof” (University of South Florida, priority 2019, dated 2023) can be followed below.

Molecules are shown by their SMILES.

The nature of the data set: Singlet oxygen (1O2) generation, DPBF scavenger under 635 nm laser. Particulars: 50 μg in 1.0 ml NMP, DPBF 10 μM, 635 nm laser 0.18 W/cm^2, absorbance at 415 nm. The protocol:
Singlet Oxygen (^1O2) Generation. In a typical experiment, 50 μg of the monomer or Corrole-COF materials was suspended in 1 mL of N-methylpyrrolidone (NMP) (equilibrated with air at RT) containing 10 μM of singlet oxygen sensor 1,3-diphenylisobenzofuran (DPBF). The mixture solutions were irradiated under a 635 nm laser (0.18 W cm^−2). The characteristic UV-Vis absorption spectra of the DPBF were measured at 415 nm to determine the generation of ^1O2 every 1 min, in which the UV-Vis absorption spectra of samples were collected using a UV-1800 spectrophotometer (Shimadzu, Japan) with a 0.3 cm quartz cuvette at room temperature.
TPAPC-COF was evaluated for its ability to generate ^1O2 (FIGS. 8A and 7B). The photo-generating ^1O2 ability of TPAPC-COF under a 635 nm laser (0.18 W/cm^2) irradiation was investigated by using 1,3-diphenylisobenzofuran (DPBF) as a scavenger, and the process was monitored by time-dependent electronic absorption spectroscopy.

Regarding `Nc1ccc(-c2c3nc(c4ccc([nH]4)c(-c4ccc(N)cc4)c4ccc([nH]4)c(-c4ccc(N)cc4)c4ccc2[nH]4)C=C3)cc1` [H3TPAPC, 5,10,15-tris(p-aminophenyl)corrole], the “degradation efficiency (conversion) of DPBF” value turned out to be 56%.
